Reference: paper PMC7562955 (Nature Communications, 2020)

Target: T1, TLR7 extracellular domain (Macaca mulatta, UniProt B3Y653, N167Q/N389Q/N488Q/N799Q)
T1 construct: Monkey (Macaca mulatta) TLR7 extracellular domain expression construct; protein A tag (C, cleaved yes); made in house; host or cells: Drosophila S2 cells
T1 sequence (B3Y653 with tags, fused parts or gaps N167Q/N389Q): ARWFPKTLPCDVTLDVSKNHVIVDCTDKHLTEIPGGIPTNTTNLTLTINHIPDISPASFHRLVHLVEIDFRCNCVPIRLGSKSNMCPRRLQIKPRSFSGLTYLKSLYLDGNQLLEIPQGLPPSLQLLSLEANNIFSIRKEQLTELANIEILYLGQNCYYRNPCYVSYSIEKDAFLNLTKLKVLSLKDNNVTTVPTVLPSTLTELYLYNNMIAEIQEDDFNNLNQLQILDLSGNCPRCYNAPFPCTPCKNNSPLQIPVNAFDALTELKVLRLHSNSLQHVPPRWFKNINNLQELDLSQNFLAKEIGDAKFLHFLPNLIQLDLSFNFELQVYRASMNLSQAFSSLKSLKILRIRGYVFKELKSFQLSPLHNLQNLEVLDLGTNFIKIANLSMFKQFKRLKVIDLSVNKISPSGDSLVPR
T1 sequence (B3Y653 with tags, fused parts or gaps N488Q/N799Q): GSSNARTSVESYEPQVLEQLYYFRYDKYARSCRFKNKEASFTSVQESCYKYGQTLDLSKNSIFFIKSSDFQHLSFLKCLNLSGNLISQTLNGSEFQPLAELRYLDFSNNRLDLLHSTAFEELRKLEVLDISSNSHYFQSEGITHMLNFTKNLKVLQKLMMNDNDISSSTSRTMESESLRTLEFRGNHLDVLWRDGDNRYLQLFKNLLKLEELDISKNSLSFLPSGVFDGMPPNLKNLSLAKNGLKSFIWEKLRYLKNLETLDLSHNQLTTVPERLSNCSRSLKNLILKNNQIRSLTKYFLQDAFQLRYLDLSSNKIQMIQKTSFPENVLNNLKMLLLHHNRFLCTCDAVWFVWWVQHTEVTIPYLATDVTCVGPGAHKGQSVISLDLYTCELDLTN
Experiment: ITC titration to TLR7 recombinant protein
Assay type: binding, Monkey (Macaca mulatta)
Conditions: pH 4.7; read-out: Dissociation constant KD
Method: The recombinant TLR7 proteins expressed in Drosophila S2 cells (Thermo Fisher Scientific) using Monkey (Macaca mulatta) TLR7 extracellular domain expression construct with N167Q, N399Q, N488Q and N799Q mutations and cleavable Z-loop and C-terminal protein A tag were prepared and were stored in a buffer containing 10 mM Tris-HCl pH 7.5 and 150 mM NaCl at concentrations of 10–15 mg ml^−1. Briefly, the purification steps included IgG affinity purification, the Z-loop and the protein A tag cleavage, and gel-filtration chromatography. Glycan-trimmed TLR7 proteins, expressed in the presence of 1.5 mg l^−1 kifunensine (Glycosyn) and treated by Endo Hf (New England Biolabs) were used for crystallization. Glycan-untrimmed proteins were used in ITC analysis, crosslinking assay, negative-staining EM and cryo-EM (200 kV microscopes) analyses. Glycan-trimmed TLR7 proteins with partially-uncleaved protein A tag were used for cryo-EM analysis using Tatan Krios (Supplementary Fig. 11).
ITC experiments (Fig. 2a) were conducted at 298 K in a final buffer condition of ~30 mM citrate-NaOH pH 4.7 or pH 5.7 (Hampton Research), 150 mM NaCl by using a MicroCal iTC200 (Malvern Panalytical). […]

| SMILES | Kd [µM] |
| --- | --- |
| CCOc1nc(N)c2nc(-c3cncc(F)c3)n(Cc3ccc(CN4C[C@@H]5C[C@H]4CN5C)cc3)c2n1 [Cpd-6] | 10 |
| CCOc1nc(C)c2nc(-c3cncc(F)c3)n(Cc3ccc(CN4C[C@@H]5C[C@H]4CN5C)cc3)c2n1 [Cpd-7] | 7.4 |
